What is called IC50 is the concentration at which inhibition is half-maximal.

Among the data in patent publication US7834024B2, “Compositions and methods for inhibition of the JAK pathway” (Rigel Pharmaceuticals, Inc., priority 2007, dated 2010) are IC50 values, retold here.

One assay relates to Ramos B-Cell Line Stimulated with IL-4 (JAK-1 and JAK-3 / Stat-6, CD23). Briefly: Assay for Ramos B-Cell Line Stimulated with IL-4 (CD23 upregulation, FACS). Conditions: Homo sapiens, Ramos, human Ramos B cells, compound 1 hour, IL-4 50 units/mL for 20-24 hours, anti-CD23-PE FACS; read-out: Example 2 (IC50). Type of assay: cell-based. In outline:
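Human Ramos B cells (5×10^4 per point, RPMI with 5% serum) pre-incubated 1 hour at 37° C with compound or DMSO, then stimulated with IL-4 at 50 units/mL final for 20-24 hours. CD23 upregulation measured by flow cytometry.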
On to `Cc1cc(Nc2nc(Nc3ccc(C(N)=O)cc3)ncc2F)cc(C)c1OC(C)C#N` (stereo not shown) [Compound I-95, N2-(4-Aminocarbonylphenyl)-N4-[4-(1-cyanoethoxy)-3,5-dimethylphenyl]-5-fluoro-2,4-pyrimidinediamine], for which the IC50 stood at 103 nM.
On the same count and under the same terms, next, `Cc1cc(Nc2nc(Nc3cccc(C(N)=O)c3)ncc2F)cc(C)c1OC(C)C#N` (stereo not shown) [Compound I-96, N2-(3-Aminocarbonylphenyl)-N4-[4-(1-cyanoethoxy)-3,5-dimethylphenyl]-5-fluoro-2,4-pyrimidinediamine]: 255 nM; `Cc1cc(Nc2nc(Nc3ccc(CC#N)cc3)ncc2F)cc(C)c1OC(C)C#N` (stereo not shown) [Compound I-97, N4-[4-(1-Cyanoethoxy)-3,5-dimethylphenyl]-N2-(4-cyanomethylphenyl)-5-fluoro-2,4-pyrimidinediamine]: 155 nM.
Same read-out and setting: for `N#CCOc1ccc(Nc2nc(Nc3cccc(C(N)=O)c3)ncc2F)cc1Cl` [Compound I-99, N2-(3-Aminocarbonylphenyl)-N4-(3-chloro-4-cyanomethoxyphenyl)-5-fluoro-2,4-pyrimidinediamine] the value was 156 nM.
On the same count and under the same terms, next, `N#CCOc1ccc(Nc2nc(Nc3ccc(CC#N)cc3)ncc2F)cc1Cl` [Compound I-100, N4-(3-Chloro-4-cyanomethoxyphenyl)-N2-(4-cyanomethylphenyl)-5-fluoro-2,4-pyrimidinediamine]: 83 nM.
Consider `N#CCOc1ccc(Nc2nc(Nc3ccc(C(N)=O)cc3)ncc2F)cc1F` [Compound I-101, N2-(4-Aminocarbonylphenyl)-N4-(4-cyanomethoxy-3-fluorophenyl)-5-fluoro-2,4-pyrimidinediamine], for which the IC50 turned out to be 33.7 nM.
With `N#CCOc1ccc(Nc2nc(Nc3cccc(C(N)=O)c3)ncc2F)cc1F` [Compound I-102, N2-(3-Aminocarbonylphenyl)-N4-(4-cyanomethoxy-3-fluorophenyl)-5-fluoro-2,4-pyrimidinediamine], the IC50 turned out to be 259 nM.
Same read-out and setting: next, `N#CCOc1ccc(Nc2nc(Nc3ccc(CC#N)cc3)ncc2F)cc1F` [Compound I-103, N4-(4-Cyanomethoxy-3-fluorophenyl)-N2-(4-cyanomethylphenyl)-5-fluoro-2,4-pyrimidinediamine]: 82.7 nM; `CCc1cc(Nc2ncc(F)c(Nc3ccc(OCC#N)cc3)n2)cc(C#N)c1Cl` [Compound I-104, N2-(4-Chloro-3-cyano-5-ethylphenyl)-N4-(4-cyanomethoxyphenyl)-5-fluoro-2,4-pyrimidinediamine]: 1140 nM; `CCc1cc(Nc2ncc(F)c(Nc3cccc(OCC#N)c3)n2)cc(C#N)c1Cl` [Compound I-105, N2-(4-Chloro-3-cyano-5-ethylphenyl)-N4-(3-cyanomethoxyphenyl)-5-fluoro-2,4-pyrimidinediamine]: 31600 nM.
On the same count and under the same terms, next, `CCc1cc(Nc2ncc(F)c(Nc3ccc(CC#N)cc3)n2)cc(C#N)c1Cl` [Compound I-106, N2-(4-Chloro-3-cyano-5-ethylphenyl)-N4-(4-cyanomethylphenyl)-5-fluoro-2,4-pyrimidinediamine]: 7020 nM; `N#CCOc1ccc(Nc2ncc(F)c(Nc3ccc(OCC#N)c(Cl)c3)n2)cc1Cl` [Compound I-107, N2,N4-Bis(3-chloro-4-cyanomethoxyphenyl)-5-fluoro-2,4-pyrimidinediamine]: 350 nM; `CCc1cc(Nc2ncc(F)c(Nc3ccc(OCC#N)c(Cl)c3)n2)cc(C#N)c1Cl` [Compound I-108, N2-(4-Chloro-3-cyano-5-ethylphenyl)-N4-(3-chloro-4-cyanomethoxyphenyl)-5-fluoro-2,4-pyrimidinediamine]: 1800 nM.
Same read-out and setting: for `Cc1noc(COc2ccc(Nc3nc(Nc4ccc(CC#N)cc4)ncc3F)cc2)n1` [Compound I-110, N2-(4-Cyanomethylphenyl)-5-fluoro-N4-[4-((3-methyl-1,2,4-oxadiazol-5-yl)methoxy)phenyl]-2,4-pyrimidinediamine] the value was 29.8 nM.
For `Cc1noc(COc2ccc(Nc3nc(Nc4cccc(C#N)c4)ncc3F)cc2)n1` [Compound I-111, N2-(3-Cyanophenyl)-5-fluoro-N4-[4-((3-methyl-1,2,4-oxadiazol-5-yl)methoxy)phenyl]-2,4-pyrimidinediamine], the IC50 worked out at 1050 nM.
Regarding `Cc1noc(Cc2ccc(Nc3nc(Nc4ccc(CC#N)cc4)ncc3F)cc2)n1` [Compound I-113, N2-(4-Cyanomethylphenyl)-5-fluoro-N4-[4-((3-methyl-1,2,4-oxadiazol-5-yl)methyl)phenyl]-2,4-pyrimidinediamine], the IC50 came to 149 nM.
The same measure, in the same setting: next, `Cc1noc(CCCc2ccc(Nc3nc(Nc4cccc(C#N)c4)ncc3F)cc2)n1` [Compound I-114, N2-(3-Cyanophenyl)-5-fluoro-N4-[4-(3-(3-methyl-1,2,4-oxadiazol-5-yl)propyl)phenyl]-2,4-pyrimidinediamine]: 1750 nM; `Cc1noc(COc2ccc(Nc3nc(Nc4ccc(CC#N)cc4)ncc3F)c(C)c2)n1` [Compound I-115, N2-(4-Cyanomethylphenyl)-5-fluoro-N4-[2-methyl-4-((3-methyl-1,2,4-oxadiazol-5-yl)methoxy)phenyl]-2,4-pyrimidinediamine]: 258 nM.
The same measure, in the same setting: next, `Cc1noc(COc2ccc(Nc3nc(Nc4cccc(C#N)c4)ncc3F)c(C)c2)n1` [Compound I-116, N2-(3-Cyanophenyl)-5-fluoro-N4-[2-methyl-4-((3-methyl-1,2,4-oxadiazol-5-yl)methoxy)phenyl]-2,4-pyrimidinediamine]: 1440 nM; `N#CCc1ccc(Nc2ncc(F)c(Nc3ccc(F)c(Cl)c3)n2)cc1` [Compound I-117, N4-(3-Chloro-4-fluorophenyl)-N2-(4-cyanomethylphenyl)-5-fluoro-2,4-pyrimidinediamine]: 6710 nM; `N#CCc1ccc(Nc2ncc(F)c(Nc3ccc(F)c(C#N)c3)n2)cc1` [Compound I-118, N4-(3-Cyano-4-fluorophenyl)-N2-(4-cyanomethylphenyl)-5-fluoro-2,4-pyrimidinediamine]: 103000 nM.
Still for that read-out and setting: next, `Cc1noc(CCc2ccc(Nc3nc(Nc4ccc(CC#N)cc4)ncc3F)cc2)n1` [Compound I-120, N2-(4-Cyanomethylphenyl)-5-fluoro-N4-[4-(2-(3-methyl-1,2,4-oxadiazol-5-yl)ethyl)phenyl]-2,4-pyrimidinediamine]: 1950 nM; `Cc1noc(CCc2ccc(Nc3nc(Nc4ccc(CCC#N)cc4)ncc3F)cc2)n1` [Compound I-121, 5-Fluoro-N4-[4-(2-(3-methyl-1,2,4-oxadiazol-5-yl)ethyl)phenyl]-N2-[4-(2-cyanoethyl)phenyl]-2,4-pyrimidinediamine]: 2140 nM; `COC(=O)c1ccc(Nc2nc(Nc3cccc(C(N)=O)c3)ncc2F)s1` [Compound I-123, N2-(3-Aminocarbonylphenyl)-5-fluoro-N4-(5-methoxycarbonylthiophen-2-yl)-2,4-pyrimidinediamine]: 1060 nM.

Still in this assay, the particulars now being: human Ramos B cells, compound 1 hour, IL-4 50 units/mL for 20-24 hours, anti-CD23-PE FACS; read-out: Example 2 (IC50).
As to `CNC(=O)COc1cccc(Nc2ncc(F)c(Nc3cc(OC)c(OC)c(OCC#N)c3)n2)c1` [Compound I-109, N4-(3-Cyanomethoxy-4,5-dimethoxyphenyl)-5-fluoro-N2-[3-(N-methylaminocarbonylmethyleneoxy)phenyl]-2,4-pyrimidinediamine], the 50% inhibitory concentration (IC50) was determined as 660 nM.
